Data: patent publication US20240239786A1, “COMPOSITIONS AND METHODS FOR THE TREATMENT AND PREVENTION OF CANCER” (Yale University, priority 2021, published 2024)

Legend:
SKOV3 xenografts = assay: Subcutaneous growth of SKOV3 xenografts; format: in vivo, NCG mice; settings: i.p., 4 weeks; olaparib 50 mg/kg qd, DB4 10 mg/kg q2d
Experimental: SCID-Beige mice implanted ip with PEO4ip cells were treated daily (qd) with DB4 (10 mg/kg), olaparib (50 mg/kg), and the DB4-olaparib combination for 4 weeks. Kaplan Meier analysis was performed to determine the survival time of mice following treatments. Statistical significance was determined by the Mantel-Cox test comparing the control with each treatment group (N=4-5). […] DB4 given every two days (q2d) in the DB4-olaparib combination for 4 or 6 weeks (n=4-5). […] NOD CRISPR Prkdc Il2r Gamma (NCG) mice implanted sc with SKOV3 cells were treated as described in FIG. 10C for 4 weeks during which the tumor size was measured. Statistical significance was determined by the Wilcoxon matched-pairs signed test comparing the control with each treatment group and comparing between treatment groups. […]
The efficacy of the combination of DB4 and olaparib to treat SKOV3 tumor xenografts, as determined by the tumor size, was ascertained in a subcutaneous (s.c.) mouse model (Ratner E S et al., 2016, Br J Cancer, 114:777-786; Lin Z P et al., 2018, PLOS One, 13:e0207399). […]
The progression of PEO4ip tumor xenografts in mice was evaluated by measuring the size of the circumference at the lower one-third of the abdominal area with the mouse head positioned upward. […] The growth of SKOV3 tumor xenografts was evaluated by the size of s.c. tumor using a digital caliper. […]

DSB end resection = assay: Western blot of DSB end resection with etoposide in PEO4 cells; format: cell-based; settings: for Chk1 phosphorylation with/without etoposide: 5 μM etoposide 4 hr; for RPA32 phosphorylation, drug alone: 30 μM DB4, 1 μM triapine or 5 μM etoposide; for etoposide-induced RPA32 phosphorylation: pre-treated 1 hr, then 5 μM etoposide 4 hr
Experimental: PEO1 cells were treated with 30 μM DB4 or 1 μM triapine for indicated times, pulsed with EdU for 1 hr and subsequently assayed for DNA synthesis inhibition as described in FIG. 2B. The bivariate plots of Alexa Fluor 488 and PE-Cy5 were gated to determine % S phase cells. […] PEO4 cells were treated with 30 μM DB4 or 1 μM triapine for indicated times, pulsed with EdU for 1 hr and subsequently assayed for DNA synthesis inhibition as described in FIG. 2B. The bivariate plots of Alexa Fluor 488 and PE-Cy5 were gated to determine % S phase cells. […] The bivariate plots of Alexa Fluor 488 and PE-Cy5 shown in FIG. 6A and FIG. 6B were gated to determine % cells in G1, S, and G2/M phases. […] PEO4 cells were treated with 30 μM DB4 or 1 μM triapine for various time periods and subjected to western blot analysis for the levels of cyclin A2, p-CDK1/2, p-H1, p-Chk1, and HSC70. The HSC70 protein level was used as a loading control. Cropped gel images of protein bands are presented. Cyclin A2, p-CDK1/2, and p-H1 bands were from re-probing the same blot. p-Chk1 and HSC70 bands were from re-probing the same duplicated blot. […] The CDK2 activity is expressed by the percentage of the p-HI levels relative to that of the 0 hr control is shown. […] Protein was analyzed by western blotting for p-Chk1, p-ATR, p-RPA32, γH2AX, and HSC70. Cropped gel images of protein bands are presented. All protein bands were from re-probing the same blot. DSB end resection is assessed by the level of p-RPA32.
To investigate the effects of DB4 on DSB end resection, the level of RPA32 phosphorylation, indicative of CDK2-dependent DSB end resection, was determined.
The methodology was described previously (Lin Z P et al., 2014, Molecular Cancer Res, 12:381-393; Ratner E S et al., 2016, Br J Cancer, 114:777-786). The anti-HSC70 antibody was purchased from Santa Cruz (Santa Cruz, CA). Anti-cyclin A2, anti-phospho-ATR (Thr-1981), anti-phospho-Chk1 (Ser-345), anti-phospho-CDK1/2 (Tyr-15), and anti-Y-H2AX (Ser-139) antibodies were from Cell Signaling (Danvers, MA). Anti-phospho-RPA32 (S4/S8) and anti-BRCA2 antibodies were from Bethyl Laboratories (Montgomery, TX). Anti-phospho-histone H1 antibody was from Millipore-Sigma (Burlington, MA). To avoid the cross-reaction of secondary antibodies with previously probed primary antibodies, blots were stripped and re-probed with next primary antibodies raised in a different species in an alternate fashion. All images were acquired and processed using the G: BOX gel documentation system and the GeneSnap software (Syngene, Frederick, MD). Brightness and contrast of images were applied equally across the entire gel/blot image and to controls. Images of protein bands were cropped and only brightness-adjusted using the PowerPoint software (Microsoft, Redmond, WA). Quantification of the protein band intensity was performed using the ImageJ software (NIH, Bethesda, MD).

Row | SMILES | inhibition of subcutaneous growth of SKOV3 xenografts (tumor size) (SKOV3 xenografts) | ATR phosphorylation (DSB end resection) | Chk1 phosphorylation with/without etoposide (DSB end resection) | RPA32 phosphorylation, drug alone (DSB end resection) | etoposide-induced RPA32 phosphorylation (DSB end resection)
1 | O=C(c1cc(Cc2n[nH]c(=O)c3ccccc23)ccc1F)N1CCN(C(=O)C2CC2)CC1 [olaparib, reference compound] | moderately but significantly inhibited |  |  |  | 
2 | NC(=S)NN=Cc1ncccc1N [triapine, 3-aminopyridine-2-carboxaldehyde-thiosemicarbazone, reference compound] |  | induced ATR and Chk1 phosphorylation independently of etoposide treatment | induced ATR and Chk1 phosphorylation independently of etoposide treatment | induced a minor RPA32 phosphorylation | blocked phosphorylation of RPA32, induced by etoposide
3 | C=CCn1c(SCc2cccc(Cl)c2)nnc1C1CCN(Cc2nc3ccccc3s2)CC1 [DB4, 2-[(4-{4-allyl-5-[(3-chlorobenzyl)thio]-4H-1,2,4-triazol-3-yl}-1-piperidinyl)methyl]-1,3-benzothiazole] | moderately but significantly inhibited | weakly induce ATR phosphorylation | only synergized with etoposide to induce Chk1 phosphorylation | no effect on basal RPA32 phosphorylation | augmented etoposide-induced RPA32 phosphorylation
